Columns and labels:
Bcl-2 = Bcl-2 (Homo sapiens, UniProt P10415); experiment: Bcl-2 binding affinity analysis (fluorescence polarization binding assay)
How it was run: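 Binding to human Bcl-2 quantified in vitro by a fluorescence polarization assay.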

Bcl-xL = Bcl-xL (Homo sapiens, UniProt Q07817); experiment: Bcl-xL binding affinity analysis (fluorescence polarization binding assay); parameters: scale not given here
How it was run: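 In vitro fluorescence polarization binding assay measuring compound binding to human Bcl-xL.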

[1] = test system: RL Human Follicular Lymphoma Cell Line; experiment: Alamar blue cytotoxicity assay in RL cells; assay type: cell-based; details: Homo sapiens, 72 h incubation, read-out: Bcl RL Alamar Blue IC50
Protocol: When RL-cells are exposed to isoxazolidine compounds of the present invention, the inhibitors show a dose-dependent cell-killing in the Alamar blue cytoxicity assay with IC50 values of from about 100 μM to about 1 μM (See Examples). When Panc1 cells are exposed to the isoxazolidine compounds of the present invention in combination with camptothecin, the inhibitors show a synergistic dose-dependent cell killing in the propidium iodide exclusion cell survival assay with IC50 values of from about 100 μM to about 1 μM (See Examples).
• 1) Using 96 well plates, compounds were serially diluted in DMSO from 9 mM to 4 uM • 2) Assay plates were prepared by diluting samples 310 fold into 150 ul of medium containing 30,000 cells/well resulting in a final DMSO concentration of 0.3% and a concentration range from 29 uM to 0.013 uM for each compound. • 3) Plates were incubated at 37 C and 5% CO2 for 72 h • 4) After 72 h, Alamar blue reagent was added to each well and plates read according to manufacturer's instructions
In vitro cytotoxicity data for RL cells is presented below for various compounds of the invention.

Bcl-xL, sequence (Q07817 whole entry): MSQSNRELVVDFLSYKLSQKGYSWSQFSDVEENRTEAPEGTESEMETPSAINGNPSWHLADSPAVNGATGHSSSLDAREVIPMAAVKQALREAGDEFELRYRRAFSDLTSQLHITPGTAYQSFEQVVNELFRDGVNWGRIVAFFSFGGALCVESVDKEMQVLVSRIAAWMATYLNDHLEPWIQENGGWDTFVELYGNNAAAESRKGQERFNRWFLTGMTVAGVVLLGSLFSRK
Bcl-2, sequence (P10415 whole entry): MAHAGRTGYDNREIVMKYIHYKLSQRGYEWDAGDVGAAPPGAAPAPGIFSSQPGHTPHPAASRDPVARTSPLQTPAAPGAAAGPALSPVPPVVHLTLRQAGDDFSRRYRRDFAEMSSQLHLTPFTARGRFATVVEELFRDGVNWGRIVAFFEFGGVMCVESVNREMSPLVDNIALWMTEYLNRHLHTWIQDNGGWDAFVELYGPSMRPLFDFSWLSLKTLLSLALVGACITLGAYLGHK

Row | Ki (Bcl-2) | Bcl-XL binding affinity Ki (Bcl-xL) | SMILES | IC50 [1]
1 | < 800 nM | ♯ | C[C@@H]1[C@@H](NC(=O)[C@@H]2C([C@H](C)O)[C@H](CO)ON2Cc2cccc(CN(Cc3ccccc3)[C@@H](CCc3ccccc3)CN(C)C)c2)C[C@H]2C[C@@H]1C2(C)C (stereo partly drawn) [Compound 420] | < 2000 nM
2 | < 800 nM | ♯ | CC(O)C1C(CO)ON(Cc2cccc(CN(CCN(C)C)Cc3cc4ccccc4o3)c2)C1C(=O)NC1CC2CC(C1C)C2(C)C (stereo not drawn) [Compound 384] | 2000 to 5000 nM
3 | < 800 nM | ♯ | CC(C)CN(CCN(C)C)Cc1cccc(CN2OC(CO)C(C(C)O)C2C(=O)NC2CC3CC(C2C)C3(C)C)c1 (stereo not drawn) [Compound 379] | > 5000 nM
4 | < 800 nM | ♯ | CC(O)C1C(CO)ON(Cc2cccc(CN(CCN(C)C)Cc3cccc(Cl)c3)c2)C1C(=O)NC1CC2CC(C1C)C2(C)C (stereo not drawn) [Compound 361] | 2000 to 5000 nM
5 | < 800 nM | ♯ | CC(O)C1C(CO)ON(Cc2cccc(CN(Cc3ccccc3)C(CC3CCCCC3)CN(C)C)c2)C1C(=O)NC1CC2CC(C1C)C2(C)C (stereo not drawn) [Compound 437] | > 5000 nM
6 | < 800 nM | ♯ | CCCCCCCN(CCN(C)C)Cc1cccc(CN2O[C@@H](CO)C([C@H](C)O)[C@H]2C(=O)N[C@H]2C[C@H]3C[C@@H]([C@@H]2C)C3(C)C)c1 (stereo partly drawn) [Compound 355] | 2000 to 5000 nM
7 | < 800 nM | ♯ | C[C@@H]1[C@@H](NC(=O)[C@@H]2[C@H]([C@H](C)O)[C@H](CO)ON2Cc2cccc(N(CCCN(C)C)Cc3ccccc3C(F)(F)F)c2)C[C@H]2C[C@@H]1C2(C)C [Compound 585] | 2000 to 5000 nM
8 | < 800 nM | ♯ | CC(C)CC(CN(C)C)N(Cc1ccc(C(F)(F)F)cc1)Cc1cccc(CN2OC(CO)C(C(C)O)C2C(=O)NC2CC3CC(C2C)C3(C)C)c1 (stereo not drawn) [Compound 327] | < 2000 nM
9 | < 800 nM | ♯ | CCOc1cccc(CN(CCN(C)C)Cc2cccc(CN3OC(CO)C(C(C)O)C3C(=O)NC3CC4CC(C3C)C4(C)C)c2)c1 (stereo not drawn) [Compound 383] | 2000 to 5000 nM
10 | < 800 nM | ♯ | CC(O)C1C(CO)ON(Cc2cccc(CN(CCN(C)C)Cc3ccccc3C#N)c2)C1C(=O)NC1CC2CC(C1C)C2(C)C (stereo not drawn) [Compound 369] | 2000 to 5000 nM
11 | < 800 nM | ♯ | CC(C)CC(CN(C)C)N(Cc1cccc(CN2OC(CO)C(C(C)O)C2C(=O)NC2CC3CC(C2C)C3(C)C)c1)Cc1cccc(C(F)(F)F)c1 (stereo not drawn) [Compound 326] | 2000 to 5000 nM
12 | < 800 nM | ♯ | CC(O)C1C(CO)ON(Cc2cccc(CN(CCN(C)C)Cc3cccc(C(F)(F)F)c3)c2)C1C(=O)NC1CC2CC(C1C)C2(C)C (stereo not drawn) [Compound 398] | > 5000 nM
13 | < 800 nM | ♯ | CC(O)C1C(CO)ON(Cc2cccc(CN(CCN(C)C)Cc3ccccc3F)c2)C1C(=O)NC1CC2CC(C1C)C2(C)C (stereo not drawn) [Compound 352] | 2000 to 5000 nM
14 | < 800 nM | ♯ | CC(O)C1C(CO)ON(Cc2cccc(CN(Cc3ccccc3)C3CCN(C)C3)c2)C1C(=O)NC1CC2CC(C1C)C2(C)C (stereo not drawn) [Compound 429] | 2000 to 5000 nM
15 | < 800 nM | ♯ | C[C@@H]1[C@@H](NC(=O)[C@@H]2C([C@H](C)O)[C@H](CO)ON2Cc2cccc(CN(CCN(C)C)Cc3cccc(F)c3F)c2)C[C@H]2C[C@@H]1C2(C)C (stereo partly drawn) [Compound 362] | 2000 to 5000 nM
16 | < 800 nM | ♯ | CCc1ccccc1CN(CCN(C)C)Cc1cccc(CN2OC(CO)C(C(C)O)C2C(=O)NC2CC3CC(C2C)C3(C)C)c1 (stereo not drawn) [Compound 349] | < 2000 nM
17 | < 800 nM | ♯ | CC(O)C1C(CO)ON(Cc2cccc(CN(CCN(C)C)Cc3ccc(C(F)(F)F)cc3)c2)C1C(=O)NC1CC2CC(C1C)C2(C)C (stereo not drawn) [Compound 371] | 2000 to 5000 nM
18 | < 800 nM | ♯ | C[C@@H]1[C@@H](NC(=O)[C@@H]2C([C@H](C)O)[C@H](CO)ON2Cc2cccc(CN(CCN(C)C)Cc3ccccc3OC(F)(F)F)c2)C[C@H]2C[C@@H]1C2(C)C (stereo partly drawn) [Compound 365] | < 2000 nM
19 | < 800 nM | ♯ | CC(O)C1C(CO)ON(Cc2cccc(CN(CCN(C)C)Cc3cccc(F)c3)c2)C1C(=O)NC1CC2CC(C1C)C2(C)C (stereo not drawn) [Compound 356] | > 5000 nM
20 | < 800 nM | ♯ | CC(O)C1C(CO)ON(Cc2cccc(CN(CCN(C)C)Cc3cccc(Oc4ccccc4)c3)c2)C1C(=O)NC1CC2CC(C1C)C2(C)C (stereo not drawn) [Compound 374] | 2000 to 5000 nM
21 | < 800 nM | ♯ | CC(C)C[C@@H](CN(C)C)N(Cc1cccc(CN2O[C@@H](CO)C([C@H](C)O)[C@H]2C(=O)N[C@H]2C[C@H]3C[C@@H]([C@@H]2C)C3(C)C)c1)Cc1c(Cl)cccc1[N+](=O)[O-] (stereo partly drawn) [Compound 322] | 2000 to 5000 nM

The next lines start with the compound.

Row | SMILES | Ki (Bcl-2) | Bcl-XL binding affinity Ki (Bcl-xL) | IC50 [1]
22 | COc1c(CN2O[C@@H](CO)[C@@H]([C@H](C)O)[C@H]2C(=O)N[C@H]2C[C@H]3C[C@@H]([C@@H]2C)C3(C)C)cccc1-c1cccc(C(=O)N[C@H](CCc2ccccc2)CN(C)C)c1 [Compound 482] | < 800 nM | ♯ | < 2000 nM
23 | CC(O)C1C(CO)ON(Cc2cccc(C(=O)NC(Cc3ccccc3)CN(C)C)c2)C1C(=O)NC1CC2CC(C1C)C2(C)C (stereo not drawn) [Compound 507] | < 800 nM | ♯ | > 5000 nM
24 | CC(O)C1C(CO)ON(Cc2cccc(CN3CCN(C)CC3c3ccccc3)c2)C1C(=O)NC1CC2CC(C1C)C2(C)C (stereo not drawn) [Compound 473] | < 800 nM | ♯ | > 5000 nM
25 | C[C@@H]1[C@@H](NC(=O)[C@@H]2[C@H]([C@H](C)O)[C@H](CO)ON2Cc2cccc(NC(=O)N[C@H](Cc3ccccc3)CN(C)C)c2)C[C@H]2C[C@@H]1C2(C)C [Compound 571] | < 800 nM | ♯ | > 5000 nM
26 | CC(C)C[C@H](CN(C)C)NC(=O)Nc1cccc(CN2O[C@@H](CO)[C@@H]([C@H](C)O)[C@H]2C(=O)NC2C[C@H]3C[C@@H]([C@@H]2C)C3(C)C)c1 (stereo partly drawn) [Compound 562] | < 800 nM | ♯ | > 5000 nM
27 | C[C@@H]1[C@@H](NC(=O)[C@@H]2[C@H]([C@H](C)O)[C@H](CO)ON2Cc2cccc(NC(=O)N[C@@H](CC3CCCCC3)CN(C)C)c2)C[C@H]2C[C@@H]1C2(C)C [Compound 577] | < 800 nM | ♯ | 2000 to 5000 nM
28 | CC(C)C(CN(C)C)NC(=O)c1cccc(CN2OC(CO)C(C(C)O)C2C(=O)NC2CC3CC(C2C)C3(C)C)c1 (stereo not drawn) [Compound 502] | < 800 nM | ♯ | > 5000 nM
29 | C[C@@H]1[C@@H](NC(=O)[C@@H]2[C@H]([C@H](C)O)[C@H](CO)ON2Cc2cccc(NC(=O)N[C@@H](Cc3ccccc3)CN(C)C)c2)C[C@H]2C[C@@H]1C2(C)C [Compound 570] | < 800 nM | ♯ | > 5000 nM
30 | CC(O)C1C(CO)ON(Cc2cccc(CN3CCN(C)C(c4ccccc4)C3)c2)C1C(=O)NC1CC2CC(C1C)C2(C)C (stereo not drawn) [Compound 456] | < 800 nM | ♯ | > 5000 nM
31 | CC(O)C1C(CO)ON(Cc2cccc(CNCC3CCCN3C(=O)OCc3ccccc3)c2)C1C(=O)NC1CC2CC(C1C)C2(C)C (stereo not drawn) [Compound 474] | < 800 nM | ♯ | 2000 to 5000 nM
32 | C[C@@H]1[C@@H](NC(=O)[C@@H]2C([C@H](C)O)[C@H](CO)ON2Cc2cccc(CN3[C@@H](CN(C)C)CC[C@H]3c3ccccc3)c2)C[C@H]2C[C@@H]1C2(C)C (stereo partly drawn) [Compound 448] | < 800 nM | ♯ | 2000 to 5000 nM
33 | COc1c(CN2O[C@@H](CO)[C@@H]([C@H](C)O)[C@H]2C(=O)N[C@H]2C[C@H]3C[C@@H]([C@@H]2C)C3(C)C)cccc1-c1cccc(C(=O)N[C@@H](Cc2ccccc2)CN(C)C)c1 [Compound 477] | < 800 nM | ♯ | < 2000 nM
34 | COc1c(CN2O[C@@H](CO)[C@@H]([C@H](C)O)[C@H]2C(=O)N[C@H]2C[C@H]3C[C@@H]([C@@H]2C)C3(C)C)cccc1-c1cccc(C(=O)N[C@H](CN(C)C)c2ccccc2)c1 [Compound 491] | < 800 nM | ♯ | 2000 to 5000 nM
35 | C[C@@H]1[C@@H](NC(=O)[C@@H]2[C@H]([C@H](C)O)[C@H](CO)ON2Cc2cccc(NC(=O)N(C)[C@@H](CC3CCCCC3)CN(C)C)c2)C[C@H]2C[C@@H]1C2(C)C [Compound 575] | < 800 nM | ♯ | 2000 to 5000 nM
36 | CC(O)C1C(CO)ON(Cc2cccc(CN3CCN(C)CC3)c2)C1C(=O)NC1CC2CC(C1C)C2(C)C (stereo not drawn) [Compound 447] | < 800 nM | ♯ | > 5000 nM
37 | C[C@@H]1[C@@H](NC(=O)[C@@H]2[C@H]([C@H](C)O)[C@H](CO)ON2Cc2cccc(NC(=O)N(C)[C@H](CC3CCCCC3)CN(C)C)c2)C[C@H]2C[C@@H]1C2(C)C [Compound 576] | < 800 nM | ♯ | 2000 to 5000 nM

Reference: US7851637B2, “Compounds and methods for inhibiting the interaction of BCL proteins with binding partners” (Infinity Pharmaceuticals, Inc., priority 2004, dated 2010)
